In patent publication US20130253019A1, “LYSOPHOSPHATIDIC ACID RECEPTOR ANTAGONISTS FOR THE TREATMENT OF CONDITIONS OR DISEASES OF THE EYE” (priority 2010, published 2013):

Tests used:
[1] = target: T1, human LPA2 (Homo sapiens, UniProt Q9HBW0); assay: LPA2 calcium flux assay; type: cell-based; conditions: BT-20 cells or B103 cells transiently expressing human LPA2; read-out: Ca Flux IC50 LPA2
T1 construct: expressed in transfected cells; host or cells: B103 cells (transient), or alternatively BT-20 human breast cancer cells (endogenous)
T1 sequence (Q9HBW0 whole entry): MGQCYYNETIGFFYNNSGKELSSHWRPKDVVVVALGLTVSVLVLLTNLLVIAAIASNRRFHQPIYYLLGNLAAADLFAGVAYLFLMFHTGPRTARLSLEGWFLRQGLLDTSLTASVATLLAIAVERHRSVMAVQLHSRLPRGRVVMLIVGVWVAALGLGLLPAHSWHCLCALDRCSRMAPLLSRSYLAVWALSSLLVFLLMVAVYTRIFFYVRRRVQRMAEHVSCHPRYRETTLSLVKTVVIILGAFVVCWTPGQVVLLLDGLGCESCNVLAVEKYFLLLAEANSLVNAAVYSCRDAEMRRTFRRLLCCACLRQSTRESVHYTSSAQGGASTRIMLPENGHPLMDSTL
Procedure: An expression vector encoding the human LPA2 cDNA was transiently transfected into B103 cells using Lipofectamine™ 2000 (Invitrogen) following the manufacturers instruction. On the day before the assay, 30,000-35,000 cells/well were seeded together with 0.2 μl lipofectamine 2000 and 0.2 μg human LPA2 expression vector in 96-well Poly-D-Lysine coated black-wall clear-bottom plates (BD BioCoat) in DMEM+10% FBS. Following an overnight culture, cells were washed once with PBS then cultured in serum-free media for 4 hours prior to start of the calcium flux assay.
LPA2 calcium flux is measured using at least one of two different assays. In one assay, BT-20 human breast cancer cells are seeded at 25,000-35,000 cells per well in 150 μl complete media on Poly-D-Lysine coated black-wall clear-bottom plates. Following an overnight culture, cells are washed once with PBS then serum starved for 4-6 hours prior to the assay. On the day of the assay, a calcium indicator dye (Calcium 5, Molecular Devices) in assay buffer (HBSS with Ca^2+ and Mg^2+ and containing 20 mM Hepes and 0.3% fatty-acid free human serum albumin) is added to each well and incubation continued for 15 minutes at 37° C. 25 μl of test compounds in 2.5% DMSO are added to the cells and incubation continued at 37° C. for 15-30 minutes. Cells are the stimulated by the addition of 100 nM LPA and intracellular Ca^2+ measured using the Flexstation 3 (Molecular Devices). IC50s are determined using Symyx Assay Explorer analysis of drug titration curves In the second assay, B103 cells transiently expressing huma LPA2 are serum starved for 4 hours. A calcium indicator dye (Calcium 4, Molecular Devices) in assay buffer (HBSS with Ca^2+ and Mg^2+ and containing 20 mM Hepes and 0.3% fatty-acid free human serum albumin) is then added to each well and incubation continued for 1 hour at 37° C. 10 μl of test compounds in 2.5% DMSO are added to the cells and incubation continued at room temperature for 30 minutes. Cells are the stimulated by the addition of 10 nM LPA and intracellular Ca^2+ measured using the Flexstation 3 (Molecular Devices). IC50s are determined using Symyx Assay Explorer analysis of drug titration curves.

[2] = target: T2, Human LPA3 (Homo sapiens, UniProt Q9UBY5); assay: LPA3 calcium flux assay; type: cell-based; conditions: CHO cells expressing human LPA3, 10 nM LPA; read-out: Ca Flux IC50 LPA3
T2 construct: The full-length cDNA fragment for human LPA3 was obtained by PCR from the vector; expressed in transfected cells; cDNA from the Missouri S&T cDNA Resource Center
T2 sequence (Q9UBY5 1-353): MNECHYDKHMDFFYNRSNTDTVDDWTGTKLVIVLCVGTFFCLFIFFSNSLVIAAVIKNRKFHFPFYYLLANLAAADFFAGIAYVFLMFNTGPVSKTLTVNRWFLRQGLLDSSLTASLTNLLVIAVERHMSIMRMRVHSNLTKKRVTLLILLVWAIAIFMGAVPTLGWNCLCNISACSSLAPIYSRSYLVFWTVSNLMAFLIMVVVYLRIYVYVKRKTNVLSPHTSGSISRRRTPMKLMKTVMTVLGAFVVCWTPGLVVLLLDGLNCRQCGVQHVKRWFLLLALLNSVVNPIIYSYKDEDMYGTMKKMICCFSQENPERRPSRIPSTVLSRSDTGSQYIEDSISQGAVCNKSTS
Procedure: A vector containing the human LPA3 receptor cDNA was obtained from the Missouri S&T cDNA Resource Center (www.cdna.org). The full-length cDNA fragment for human LPA3 was obtained by PCR from the vector. The nucleotide sequence of the cloned human LPA3 was determined by sequencing and confirmed to be identical to the published human LPA3 sequence (NCBI accession number NM_012152). The cDNA was cloned into the pcDNA5/FRT expression plasmid and transfected in CHO cells using lipofectamine 2000 (Invitrogen Corp., USA). Clones stably expressing human LPA3 were selected using hygromycin and identified as cells that show Ca-influx in response to LPA.
(§1) Human LPA1 or LPA3 expressing CHO cells are seeded at 20,000-45,000 cells per well in a 96-well poly-D-lysine coated plate one or two days before the assay. Prior to the assay, the cells are washed once with PBS and then cultured in serum-free media for at least 6 hrs and up to 24 hrs. On the day of the assay, a calcium indicator dye (Calcium 5, Molecular Devices) in assay buffer (HBSS with Ca^2+ and Mg^2+ and containing 20 mM Hepes and 0.3% fatty-acid free human serum albumin) is added to each well and incubation continued for 1 hour at room temperature. 10 μl of test compounds in 2.5% DMSO are added to the cells and incubation continued at room temperature for 30 minutes. Cells are the stimulated by the addition of 10 nM LPA and intracellular Ca^2+ measured using the Flexstation 3 (Molecular Devices). IC50s are determined using Symyx Assay Explorer analysis of drug titration curves.

[3] = target: LPA5 (Homo sapiens, UniProt Q9H1C0); assay: LPA5 Ca flux assay; type: cell-based
Chain of LPA5 (Q9H1C0 whole entry, species assumed): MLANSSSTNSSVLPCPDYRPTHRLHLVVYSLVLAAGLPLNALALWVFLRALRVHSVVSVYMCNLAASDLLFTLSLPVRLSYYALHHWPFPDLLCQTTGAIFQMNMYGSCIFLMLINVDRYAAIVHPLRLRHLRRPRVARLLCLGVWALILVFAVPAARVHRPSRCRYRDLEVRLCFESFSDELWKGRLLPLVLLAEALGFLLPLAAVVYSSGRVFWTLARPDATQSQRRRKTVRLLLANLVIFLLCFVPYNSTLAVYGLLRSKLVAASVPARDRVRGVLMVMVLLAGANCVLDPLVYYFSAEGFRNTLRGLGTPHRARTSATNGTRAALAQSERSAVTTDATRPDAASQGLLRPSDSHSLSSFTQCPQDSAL

[4] = target: T3, Human LPA1 (Homo sapiens, UniProt Q92633); assay: LPA1 calcium flux assay; type: cell-based; conditions: CHO cells expressing human LPA1, 10 nM LPA; read-out: Ca Flux IC50 LPA1
T3 construct: the full-length cDNA for human LPA1 was obtained by PCR of the reverse transcription reaction; expressed in transfected cells
T3 sequence (Q92633 whole entry): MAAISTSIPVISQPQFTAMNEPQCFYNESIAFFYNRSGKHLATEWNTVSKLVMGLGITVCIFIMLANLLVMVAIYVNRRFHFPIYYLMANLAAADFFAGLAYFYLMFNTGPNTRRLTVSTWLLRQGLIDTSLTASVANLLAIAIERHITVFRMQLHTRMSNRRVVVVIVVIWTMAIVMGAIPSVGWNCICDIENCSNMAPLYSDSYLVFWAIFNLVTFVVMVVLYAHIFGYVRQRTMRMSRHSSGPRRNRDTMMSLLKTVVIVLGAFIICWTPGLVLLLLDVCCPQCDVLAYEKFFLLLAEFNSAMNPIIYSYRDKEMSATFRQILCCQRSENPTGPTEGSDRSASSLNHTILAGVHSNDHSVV
Procedure: A 1.1 kb cDNA encoding the human LPA1 receptor was cloned from human lung. Human lung RNA (Clontech Laboratories, Inc. USA) was reverse transcribed using the RETROscript kit (Ambion, Inc.) and the full-length cDNA for human LPA1 was obtained by PCR of the reverse transcription reaction. The nucleotide sequence of the cloned human LPA1 was determined by sequencing and confirmed to be identical to the published human LPA1 sequence (An et al. Biochem. Biophys. Res. Commun. 231:619 (1997). The cDNA was cloned into the pcDNA5/FRT expression plasmid and transfected in CHO cells using lipofectamine 2000 (Invitrogen Corp., USA). Clones stably expressing human LPA1 were selected using hygromycin and identified as cells that show Ca-influx in response to LPA.
as §1

[5] = target: LPA4 (Homo sapiens, UniProt Q99677); assay: LPA4 Ca flux assay; type: cell-based
Chain of LPA4 (Q99677 whole entry, species assumed): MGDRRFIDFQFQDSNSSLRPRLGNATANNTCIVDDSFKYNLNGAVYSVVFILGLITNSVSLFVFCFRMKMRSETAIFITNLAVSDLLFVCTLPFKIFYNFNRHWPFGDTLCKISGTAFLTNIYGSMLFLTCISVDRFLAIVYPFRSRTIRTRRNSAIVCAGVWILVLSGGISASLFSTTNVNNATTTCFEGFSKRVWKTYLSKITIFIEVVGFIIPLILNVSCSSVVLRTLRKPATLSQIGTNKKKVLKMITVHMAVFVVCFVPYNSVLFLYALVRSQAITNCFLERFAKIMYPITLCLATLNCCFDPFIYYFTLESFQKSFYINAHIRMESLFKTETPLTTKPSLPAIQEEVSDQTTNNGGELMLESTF

[6] = tested on: CNV lesion; conditions: po, 30 mg/kg, 336 h

| SMILES | IC50 [1] [nM] | IC50 [2] [nM] | IC50 [3] [nM] | IC50 [4] [nM] | IC50 [5] [nM] | decrease of CNV lesion volume [6] [%] |
| --- | --- | --- | --- | --- | --- | --- |
| Cc1noc(-c2ccc(-c3ccc(CC(=O)O)cc3)cc2)c1NC(=O)O[C@H](C)c1ccccc1 [Compound A, (R)-2-(4′-(3-methyl-4-((1-phenylethoxy)carbonylamino)isoxazol-5-yl)biphenyl-4-yl)acetic acid] | > 1000 | > 1000 | > 1000 | < 200 | > 1000 | – |
| Cc1noc(-c2ccc(-c3ccc(C4(C(=O)O)CC4)cc3)cc2)c1NC(=O)O[C@H](C)c1ccccc1 [Compound B, (R)-1-(4′-(3-methyl-4-((1-phenylethoxy)carbonylamino)isoxazol-5-yl)biphenyl-4-yl)cyclopropanecarboxylic acid] | > 1000 | > 1000 | > 1000 | < 200 | > 1000 | 11 |
| Cc1noc(-c2ccc(-c3ccc(CC(=O)O)cc3)cc2)c1NC(=O)O[C@H](C)c1ccccc1Cl [Compound C, (R)-2-(4′-(4-((1-(2-chlorophenyl)ethoxy)carbonylamino)-3-methylisoxazol-5-yl)biphenyl-4-yl)acetic acid] | > 1000 | > 1000 | > 1000 | < 200 | > 1000 | – |
| Cc1noc(-c2ccc(-c3ccc(C4(C(=O)NS(C)(=O)=O)CC4)cc3)cc2)c1NC(=O)O[C@H](C)c1ccccc1 [Compound D, {5-[4′-(1-Methanesulfonylaminocarbonyl-cyclopropyl)-biphenyl-4-yl]-3-methyl-isoxazol-4-yl}-carbamic acid (R)-1-phenyl-ethyl ester] | 200 to 1000 | > 1000 | > 1000 | < 200 | > 1000 | – |
| Cc1noc(-c2ccc(-c3ccc(C4(C(=O)O)CC4)cc3)cc2)c1NC(=O)O[C@H](C)c1ccccc1Cl [Compound E, 1-(4′-{4-[(R)-1-(2-Chloro-phenyl)-ethoxycarbonylamino]-3-methyl-isoxazol-5-yl}-biphenyl-4-yl)-cyclopropanecarboxylic acid] | > 1000 | 200 to 1000 | > 1000 | < 200 | – | – |
| C[C@@H](OC(=O)Nc1cnoc1-c1ccc(-c2ccc(C3(C(=O)O)CC3)cc2)cc1)c1ccccc1 [Compound F, 1-{4′-[4-((R)-1-Phenyl-ethoxycarbonylamino)-isoxazol-5-yl]-biphenyl-4-yl}-cyclopropanecarboxylic acid] | – | > 1000 | – | < 200 | > 1000 | – |
| Cc1noc(-c2ccc(-c3ccc(C4(c5nc(=O)o[nH]5)CC4)cc3)cc2)c1NC(=O)O[C@H](C)c1ccccc1 [Compound G, (3-Methyl-5-{4′-[1-(5-oxo-2,5-dihydro-[1,2,4]oxadiazol-3-yl)-cyclopropyl]-biphenyl-4-yl}-isoxazol-4-yl)-carbamic acid (R)-1-phenyl-ethyl ester] | > 1000 | > 1000 | > 1000 | < 200 | > 1000 | – |
| Cc1noc(-c2ccc(-c3ccc(C4(c5nnn[nH]5)CC4)cc3)cc2)c1NC(=O)O[C@H](C)c1ccccc1 [Compound H, (3-Methyl-5-{4′-[1-(1H-tetrazol-5-yl)-cyclopropyl]-biphenyl-4-yl}-isoxazol-4-yl)-carbamic acid (R)-1-phenyl-ethyl ester] | > 1000 | > 1000 | > 1000 | < 200 | > 1000 | – |
